Legend:
[1] = target: HLA-A*0201 molecule (Homo sapiens, UniProt P04439, D140Y/D185E/D98H/E176V/E277Q/G131W/G231S/I119V/I121R/I166T/I218V/L300P/L318F/N151K/N90K/P208A/P217A/Q86G/Q94H/R138H/R169H/T345S); experiment: T2-cell-peptide binding test (affinity of peptide for HLA-A*0201); conditions: various peptide concentrations, 3 μg/mL human β2m, serum-free RPMI 1640, 37°C, 16 h, flow cytometry, three replicates, repeated three times
Method: The affinity of peptides for HLA-A*0201 was measured as described previously. Briefly, T2 cells were incubated with various concentrations of each peptide and 3 μg/mL human β2m in serum-free RPMI 1640 medium at 37°C for 16 h. Then, the cells were washed and stained with antiHLA-A2 mAb and FITC-labeled goat anti-mouse IgG. The expression of HLA-A*0201 on T2 cells was determined with FACS Calibur flow cytometer (Becton Dickinson, USA). For each peptide concentration, the percent mean fluorescence index (% MFI) increase of HLA-A*0201 molecule was calculated as follows: % MFI increase = [(MFI with the given peptide − MFI without peptide)/(MFI without peptide)] × 100.
Figure 1 Binding affinity of peptides for HLA-A*0201 molecule. T2 cells were incubated with indicated concentrations of the peptides in serum-free RPMI 1640 medium supplied with 3 μg/mL human β2m at 37°C for 16 h. And then the cells were stained with anti-HLA-A2 mAb and FITC-labeled goat antimouse IgG. The expression of HLA-A*0201 on T2 cells was determined with FACS Calibur flow cytometer. The peptides HBcAg18–27 and OVA257–264 were taken as positive control and negative control, respectively. Each sample was measured in three replicates and the experiment was repeated three times.

[2] = tested on: peptide/HLA-A*0201 complex; experiment: Peptide/HLA-A*0201 complex stability on T2 cells; type: binding, human; conditions: for % MFI increase at indicated time point (h): 0 / DC50 (half-time of the peptide/HLA-A*0201 complex): T2 cells, 37°C; for % MFI increase at indicated time point (h): 0: 100 μM peptide overnight, 100 ng/mL human β2m, Brefeldin A 10 μg/mL 1 h, then 0 h at 37°C, anti-HLA-A2 mAb staining; for DC50 (half-time of the peptide/HLA-A*0201 complex): 100 μM peptide, time points 0-8 h; for % MFI increase at indicated time point (h): 2 / % MFI increase at indicated time point (h): 4 / % MFI increase at indicated time point (h): 6 / % MFI increase at indicated time point (h): 8: as at 0 h; for % MFI increase at indicated time point (h): 2: then 2 h at 37°C after Brefeldin A; for % MFI increase at indicated time point (h): 4: then 4 h at 37°C after Brefeldin A; for % MFI increase at indicated time point (h): 6: then 6 h at 37°C after Brefeldin A; for % MFI increase at indicated time point (h): 8: then 8 h at 37°C after Brefeldin A
Method: As previously described, T2 cells (10^6/mL) were incubated overnight with 100 μM of each peptide in serum-free RPMI 1640 medium supplemented with 100 ng/mL human β2m at 37°C. Then, they were washed to remove free peptides and incubated with 10 μg/mL of Brefeldin A (Sigma-Aldrich, USA) for 1 h to block newly synthesized HLA-A*0201 molecules to be expressed on cell surface, washed and incubated at 37°C for 0, 2, 4, 6, or 8 h. Subsequently, the cells were stained with the anti-HLA-A2 mAb to evaluate the expression of HLA-A*0201 molecules.

[3] = tested on: LB1751-MEL cells; experiment: Cytotoxicity (LDH release) of peptide-stimulated human PBMCs against LB1751-MEL; type: cell-based; conditions: PBMCs of healthy HLA-A*0201 donors, E/T 50/1, 25/1, 12.5/1, 4 h
Method: (§1) PBMCs were isolated from the buffy coat of heparinized whole blood samples of healthy HLA-A*0201 donors by density gradient centrifugation on the Ficoll-Paque PREMIUM (GE Healthcare Bio-Sciences AB, Uppsala, Sweden). The effector lymphocytes and dendritic cells (DCs) were prepared by our published method. All donors signed written, informed consent to provide whole blood samples used in the study. Approval of the study was obtained from the relevant ethical committees and was in accordance with the Declaration of Helsinki.
(§2) Three to five days after the final stimulation, the cytotoxic activity of the effector cells was evaluated by a lactate dehydrogenase release assay using Cytotox 96 Non-Radioactive Cytotoxicity Assay kit (Promega, USA). In brief, 1×10^4 target cells (LB1751-MEL, MCF-7 or MCF-7A4) in 50 μL RPMI 1640 containing 5% fetal calf serum (FCS) was placed in the wells of a 96-well round-bottom plate, then 50 μL of various concentrations of effector cells was added at different effector to target (E/T) ratios (50/1, 25/1, and 12.5/1). After 4 h incubation at 37°C, the supernatant was collected to assay lactate dehydrogenase (LDH) release by OD490 measurement according to the manufacturer's instructions. Experiments were performed in triplicates and the percentage of lysis was calculated as % Lysis = [(experimental LDH release − effector spontaneous LDH release − target spontaneous LDH release)/(target maximum LDH release − target spontaneous LDH release)] × 100.
Figure 2 Induction of peptide-specific CTLs from human PBMCs. PBMCs from healthy HLA-A*0201 donors were first stimulated with peptide-pulsed autologous DCs and then restimulated with peptide-pulsed autologous PBMCs. After three to five days of the final stimulation, the stimulated PBMCs were used as effector cells to detect their cytotoxic activity against tumor cells at the indicated E/T ratios in a cytotoxicity assay. The irrelevant peptide HBcAg18–27 was taken as negative control. Each sample was measured in three replicates and the experiment was repeated three times. […] (c) P1- and P3-stimulated PBMCs mediated lysis of MCF-7A4 cells. (d) P1- and P3-stimulated PBMCs mediated lysis of MCF-7 cells.

[4] = tested on: MCF-7A4 cells; experiment: Cytotoxicity (LDH release) of peptide-stimulated human PBMCs against MCF-7A4; type: cell-based; conditions: 4 h
Description: To establish a cell line expressing both HLA-A*0201 and MAGE-A4, MCF-7 cells were transfected with plasmid pCI-MAGEA4 using Lipofectamine 2000 (Invitrogen, USA) and then selected with G418. The expression of MAGE-A4 in the established cell line (designated MCF-7A4) was confirmed by reverse transcription-PCR and western blotting.
as §1, with “Approval of the study was obtained from the relevant ethical committees and was in accordance with the Declaration of Helsinki.” left out
Three to five days after the final stimulation, the cytotoxic activity of the effector cells was evaluated by a lactate dehydrogenase release assay using Cytotox 96 Non-Radioactive Cytotoxicity Assay kit (Promega, USA). […] Experiments were performed in triplicates and the percentage of lysis was calculated as % Lysis = [(experimental LDH release − effector spontaneous LDH release − target spontaneous LDH release)/(target maximum LDH release − target spontaneous LDH release)] × 100.
Figure 2 Induction of peptide-specific CTLs from human PBMCs. […] Each sample was measured in three replicates and the experiment was repeated three times. […]

[5] = tested on: LB1751-MEL cells; experiment: In vivo induction of peptide-specific CTLs in HLA-A*0201/K^b transgenic mice; conditions: 100 μg peptide in IFA once, splenocytes after 10 days, restimulated in vitro 5 days with peptide and rmIL-2; LDH release
Method: as §2
HLA-A*0201/K^b mice were immunized with 100 μg of various peptides prepared in IFA or IFA emulsion without peptide as a control. After 10 days, mice were sacrificed and splenocytes were cultured for 5 days with 10 units/mL recombinant murine interleukin-2 (rmIL-2) and […]. And then, effector cells were counted and tested for cytotoxic activity in a cytotoxicity assay.
Figure 3 In vivo induction of peptide-specific CTLs. […]

Substance | Binding affinity for HLA-A*0201 molecule (increase of HLA-A*0201 expression on T2 cells) [1] | % MFI increase at indicated time point (h): 0 [2] [%] | DC50 (half-time of the peptide/HLA-A*0201 complex) [2] [h] | % MFI increase at indicated time point (h): 2 [2] [%] | % MFI increase at indicated time point (h): 4 [2] [%] | % MFI increase at indicated time point (h): 6 [2] [%] | % MFI increase at indicated time point (h): 8 [2] [%] | Lysis of LB1751-MEL target cells by peptide-stimulated PBMCs [3] | Lysis of MCF-7A4 cells (HLA-A*0201 and MAGE-A4 expressing) by peptide-primed effector cells [4] | Lysis of LB1751-MEL target cells by splenocytes of peptide-inoculated mice [5]
OVA257–264: control peptide, negative control in HLA-A*0201 binding test (ESIINFEK; UniProt P01012 257-264, looked up, fragment) [reference compound] | did not increase | – | – | – | – | – | – | – | – | –
FLWGPRALA [Peptide P3] | highest affinity | 285.66 | 8 | 230.85 | 192.71 | 170.05 | 150.56 | could significantly lyse | could also lyse | could lyse
KVLEHVVRV [Peptide P1] | lowest affinity | 126.16 | 4 to 6 | 95.74 | 74.98 | 60.29 | 49.07 | could significantly lyse | could also lyse | could lyse
ALPTTISFT [Peptide P4] | lowest affinity | 98.80 | 2 | 48.73 | 30.79 | 21.01 | 18.52 | could not lyse | – | –
ALLEEEEGV [Peptide P2] | lower affinity | 170.07 | 2 | 84.13 | 57.09 | 42.34 | 31.19 | could not lyse | – | –
